Test results published in patent US11648247B1, “Compositions and methods for the treatment of presbyopia” (Lenz Therapeutics, Inc., priority 2021, dated 2023).

Assays:
pupil = conditions: cited from earlier work
eye [1] = conditions: brimonidine 0.20% w/v (Alphagan®) twice daily; cited from earlier work
eye [2] = experiment: Comfort and tolerability after instillation (stinging, redness, ciliary spasm/brow ache, blur, dimming); type: in vivo, human; conditions: for night vision / dimming: pH 7.5
Procedure: Ciliary spasms scores correspond to the following: 0=no discomfort; 0.5=slight sting; 1=noticeable squeeze/discomfort; 2=pain for less than 30 minutes; 3=pain for 1 hour or more; and 4=severe to intolerable pain.

presbyopic subjects [3] = conditions: pilocarpine with oxymetazoline, US 2014/0113946; cited from earlier work
[4] = Stability of aceclidine in storage (HPLC); type: physicochemical; conditions: for Stability of Aceclidine: same composition
Procedure: 20 samples of the above composition were divided evenly and stored at 25° C. and 4° C. Prior to storage, initial concentrations of aceclidine were measured using […] (“HPLC”). The amount of aceclidine in each solution was calculated by the area under the principal peak compared to a reference solution of aceclidine. Samples were then subject to storage for 3 months. Aceclidine measurements were taken at 1, 2 and 3 months.

presbyopic subjects [5] = experiment: Near and distance visual acuity after topical instillation (lines of improvement, onset, duration, efficacy index); type: in vivo, human
Procedure: As aceclidine is an […], the clinical effectiveness may vary with different ratios. For the present studies a nearly exact 50:50 ratio of stereoisomers was measured as best determined by polarimetry.
In brief, the score is calculated by multiplying the lines of improvement in near visual acuity by the number of hours the improvement lasts. For example, a score of: 5 is equal to +1 lines of improvement in near visual acuity for 5 hours; 10 is equal to +1.5 lines of improvement for 6.7 hours; 15 is equal to 2 lines of improvement for 7.5 hours; 20 is equal to 2.5 lines of improvement for 8 hours; 25 is equal to 3+ lines of improvement for 8.3 hours and 35 is equal to 3.75+ lines of improvement for 9 hours.
The subject instilled 2 drops of the above formulation in each eye as 1 single drop each eye and a second drop after 5 minutes.
2 subjects instilled 2 drops each of the above formulation in each eye about 5 minutes apart.
A 1.75% aceclidine in saline solution was formulated. One drop was instilled into each eye of a presbyopic subject. The visual acuity of the subject was tested both before and after instillation using a LogMAR chart.
Formulation AB#1 was instilled via 2-drops with a 5-minute interval in the eyes of a person. […] All near and distance vision with over-refraction was red-green adjusted to emmetropia. Near vision at 1 hour post instillation was measured. Further, duration to 20.40 vision was measured.

[6] = post instillation, 1.75% aceclidine in saline solution

## Brc1c(NC2=NCCN2)ccc2nccnc12 [brimonidine]
pupil; brimonidine 0.20% w/v topically for night vision, within four weeks of use
  tachyphylaxis of pupil modulation: ~100 % of treated subjects
pupil; brimonidine, typically
  duration of miotic effect: about four hours
pupil; brimonidine
  transiently induced miosis: 1.0-2.0 mm
Eye [1]
  rebound redness: 25 % of patients

## tropicamide
Eye [2]; 0.035% w/v tropicamide in 1.55% w/v aceclidine composition
  night vision / dimming: slight dimming
Eye [2]; 0.042% w/v tropicamide in 1.55% w/v aceclidine composition
  night vision / dimming: normal indoor night vision
Eye [2]; tropicamide 0.01% w/v with aceclidine
  effect on brow ache: slightly reduce brow ache
Eye [2]; tropicamide 0.014% w/v with aceclidine
  effect on brow ache: reduce brow ache
Eye [2]; tropicamide 0.021% w/v with aceclidine
  effect on brow ache: further reduce brow ache
Eye [2]; tropicamide 0.030% w/v with aceclidine
  effect on brow ache: further reduce brow ache
Eye [2]; tropicamide from 0.028% to 0.060% w/v with aceclidine
  effect on brow ache: completely eliminate brow ache
Eye [2]; tropicamide from 0.04% to about 0.07% w/v with aceclidine
  effect on brow ache: completely eliminate brow ache

## CC[C@@H]1C(=O)OC[C@@H]1Cc1cncn1C [pilocarpine]
Presbyopic subjects [3]
  time until full effect became diminished: about four hours

## CC(=O)OC1CN2CCC1CC2 (racemic) [aceclidine]
[4]; 4° C., 1 month
  Stability of Aceclidine: 93%
[4]; 4° C., 2 months
  Stability of Aceclidine: 92%
[4]; 4° C., 3 months
  Stability of Aceclidine: 88%
[4]; 4° C., Initial
  Stability of Aceclidine: 100%
[4]; 25° C., 1 month
  Stability of Aceclidine: 92%
[4]; 25° C., 2 months
  Stability of Aceclidine: 75%
[4]; 25° C., 3 months
  Stability of Aceclidine: 50%
[4]; 25° C., Initial, 1.50% aceclidine, 0.042% tropicamide, 5.5% polyoxyl 40 stearate, 2.5% mannitol, 3 mM citrate, pH 4.75
  Stability of Aceclidine (amount vs reference): 100%
Presbyopic subjects [5]; FIG. 2, aceclidine in carrier: 5.5% HPβCD, 0.75% CMC, 0.25% NaCl, 0.01% BAK
  near vision: < 20.20
Presbyopic subjects [5]; after instillation, 1.75% aceclidine in saline solution
  LogMAR score at 1-meter distance: −0.12 LogMAR
Presbyopic subjects [5]; after instillation, 1.75% aceclidine in saline solution, one drop each eye, 0.50 prior
  LogMAR score at 45 centimeters distance: 0.22 LogMAR
Presbyopic subjects [5]; [6]
  Noticeable degradation in reading distance acuity began: 4 h
  improved reading distance acuity maintained: 3.5 h
Eye [2]; 1.35% w/v aceclidine, Example 2
  Stinging, lasting: 2 to 5 s
